The target of test [1] is T1, human full-length glucocorticoid receptor (Homo sapiens, UniProt P04150).
T1 sequence (P04150 1-777): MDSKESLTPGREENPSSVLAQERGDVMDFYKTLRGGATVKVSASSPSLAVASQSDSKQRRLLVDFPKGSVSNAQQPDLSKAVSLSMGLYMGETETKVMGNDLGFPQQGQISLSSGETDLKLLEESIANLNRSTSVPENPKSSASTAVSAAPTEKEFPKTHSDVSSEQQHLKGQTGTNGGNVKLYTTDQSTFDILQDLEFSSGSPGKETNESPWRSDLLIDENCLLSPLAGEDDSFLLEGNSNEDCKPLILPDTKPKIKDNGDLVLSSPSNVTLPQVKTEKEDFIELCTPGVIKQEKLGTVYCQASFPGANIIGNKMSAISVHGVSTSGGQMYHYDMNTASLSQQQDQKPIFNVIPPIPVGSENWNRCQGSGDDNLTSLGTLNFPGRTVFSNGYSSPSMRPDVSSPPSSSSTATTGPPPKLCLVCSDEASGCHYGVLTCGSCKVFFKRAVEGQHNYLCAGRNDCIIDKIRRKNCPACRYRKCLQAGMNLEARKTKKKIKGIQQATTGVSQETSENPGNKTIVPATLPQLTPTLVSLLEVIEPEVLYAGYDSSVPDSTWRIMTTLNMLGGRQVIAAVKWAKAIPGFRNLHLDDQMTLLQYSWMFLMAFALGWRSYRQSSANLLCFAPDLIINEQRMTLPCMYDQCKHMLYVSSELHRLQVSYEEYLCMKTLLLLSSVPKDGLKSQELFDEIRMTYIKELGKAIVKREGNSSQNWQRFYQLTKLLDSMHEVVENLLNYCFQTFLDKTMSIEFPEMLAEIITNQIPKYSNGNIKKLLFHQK
The experiment in a line: Glucocorticoid Receptor Binding Assay (II), fluorescence polarization, FITC-dexamethasone. Further details: recombinantly expressed human full-length glucocorticoid receptor; purchased PanVera Co., Madison P2816. How it is done:
Glucocorticoid Receptor Binding Assay (II)^b
In order to measure the binding of compounds on the glucocorticoid receptor a commercially available kit was used (Glucocorticoid receptor competitor assay kit, PanVera Co., Madison, W1, P2816). Briefly, a cell lysate containing recombinantly expressed human full-length glucocorticoid receptor was mixed with a fluorescently labeled glucocorticoid (4 nM FITC-dexamethasone) plus or minus test molecule. After one hour at room temperature, the fluorescence polarization (FP) of the samples were measured. […] Test molecules were analyzed in the concentration range from 0.1 nM to 40 μM.
On the technique in general: Polarisation of emitted light reports the rotation of a fluorescent probe.

Test [2] addresses T1, human full-length glucocorticoid receptor. In words: Glucocorticoid Receptor Binding Assay (I), fluorescence polarization, Fluormone GS Red. On the set-up: purified human recombinant full-length glucocorticoid receptor; purchased Invitrogen Part #2893. Summed up:
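Fluorescence polarization competition: 2 nM purified full-length recombinant receptor with 1 nM Fluormone GS Red tracer, ±test compound over 8.5E-05 to 5 μM. Incubation was 2 h at room temperature in the dark before reading FP.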

The mark [3] stands for this setting: GR Binding Assay (II), read-out: GR (Ki, nM) (GR Binding Assay (II)).
Setting [4] is: GR Binding Assay (I), read-out: GR (Ki, nM) (GR Binding Assay (I)).

For `CC(C)(C(=O)Nc1nncs1)[C@H]1c2ccccc2Oc2nc(-c3ccc(C#N)cc3)ccc21` [Example 203], the Ki (usually the equilibrium dissociation constant of an inhibitor or competing ligand from its target) in test [1] (setting [3]) is 13.1 nM; in test [2] (setting [4]) it was 4.61 nM.

Consider `CC(C)(C(=O)Nc1nncs1)[C@H]1c2ccccc2Oc2nc(-c3cccc4ccccc34)ccc21` [Example 177], for which the Ki in test [1] (setting [3]) was 460 nM; in test [2] (setting [4]) it was > 1150 nM. With `Cc1cccc(-c2ccc3c(n2)Oc2ccccc2[C@@H]3C(C)(C)C(=O)Nc2nncs2)c1` [Example 179], the figures for the Ki in test [1] and in test [2] were 37.9 nM and 64.6 nM, respectively. Regarding `COC(=O)c1ccc(-c2ccc3c(n2)Oc2ccccc2[C@@H]3C(C)(C)C(=O)Nc2nncs2)cc1` [Example 192], the Ki in test [1] (setting [3]) came out at 13.1 nM; in test [2] (setting [4]), 12.3 nM. The matching figures for `CC(C)(C(=O)Nc1nncs1)[C@H]1c2ccccc2Oc2nc(-c3ccc(Cl)cc3)ccc21` [Example 178]: 4.7 nM and 10.6 nM.

On to `CC(C)(C(=O)Nc1nncs1)[C@H]1c2ccccc2Oc2cc(C#N)ccc21` [Example 112], for which the Ki in test [1] (setting [3]) was determined as 9.3 nM. Same read-out and setting: for `COc1ccc2c(c1)Oc1ccccc1[C@@H]2C(C)(C)C(=O)Nc1nccs1` [Example 60] the value was 35.7 nM; for `CC(C)(C(=O)Nc1nccs1)[C@@H]1c2ccccc2Oc2cc(O)ccc21` [Example 94], 404 nM; for `Cc1cnc(NC(=O)C(C)(C)C2c3ccccc3Oc3ncccc32)s1` (centres unmarked) [Example 69], 515 nM. Same read-out and setting: for `CC(C)(C(=O)Nc1nncs1)[C@H]1c2ccccc2Oc2nc(N3CCCCCC3)ccc21` [Example 146] the value was 37 nM. The same measure, in the same setting: for `CC(C)(C(=O)Nc1ncns1)C1c2ccccc2Oc2ncccc21` (centres unmarked) [Example 66] the value was 665 nM.

Regarding `CC(C)(C(=O)Nc1nncs1)[C@H]1c2ccccc2Oc2nc(-c3ccc4ccccc4c3)ccc21` [Example 186], the Ki in test [1] (setting [3]) turned out to be 84.6 nM; in test [2] (setting [4]), 386 nM. For the compound `CC(C)(C(=O)Nc1nncs1)[C@H]1c2ccccc2Oc2nc(NC(=O)c3ccccc3)ccc21` [Example 152], the Ki in test [1] (setting [3]) was 10.9 nM. Still for that read-out and setting: next, `CC(C)(C(=O)Nc1nncs1)[C@H]1c2ccccc2Oc2nc(N3CCCCC3)ccc21` [Example 138]: 11.4 nM; `Cc1nnc(NC(=O)C(C)(C)C2c3ccccc3Oc3ncccc32)s1` (centres unmarked) [Example 71]: 517 nM. For `CC(C)(C(=O)Nc1nncs1)[C@H]1c2ccccc2Oc2nc(-c3ccccc3)ccc21` [Example 171], the Ki in test [1] (setting [3]) is 10.2 nM; in test [2] it was 7.15 nM.

As to `Cc1nc(NC(=O)C(C)(C)[C@H]2c3ccccc3Oc3cc(O)ccc32)sc1C` [Example 86], the Ki in test [1] (setting [3]) amounted to 32.9 nM. On the same count and under the same terms, for `CC(C)(C(=O)Nc1nccs1)C1c2ccccc2Oc2nc(Cl)ccc21` (centres unmarked) [Example 75] the value was 29 nM; for `CNc1ccc2c(n1)Oc1ccccc1C2C(C)(C)C(=O)Nc1nccs1` (centres unmarked) [Example 127], 29.7 nM.

For the compound `COc1cccc2c1Oc1ccccc1C2C(C)(C)C(=O)Nc1nccs1` (centres unmarked) [Example 84], in test [1] (setting [3]), the Ki was found to be 104 nM.

Consider `CC(C)(C(=O)Nc1nccs1)C1c2ccccc2Sc2ccccc21` [Example 9], for which, in test [1] (setting [3]), the Ki stood at 154 nM. The same measure, in the same setting: for `Cc1nc(NC(=O)C(C)(C)[C@@H]2c3ccccc3Oc3cc(O)ccc32)sc1C` [Example 91] the value was 2550 nM. On the same count and under the same terms, next, `COc1ccc2c(c1)Oc1ccccc1[C@@H]2C(C)(C)C(=O)Nc1ncc[nH]1` [Example 61]: 909 nM. Same read-out and setting: next, `CCOC(=O)c1csc(NC(=O)C(C)(C)C2c3ccccc3Oc3cc(OCOCCOC)ccc32)n1` (centres unmarked) [Example 97]: 296 nM; `CCOC(=O)c1csc(NC(=O)C(C)(C)C2c3ccccc3Oc3cc(OC)ccc32)n1` (centres unmarked) [Example 48]: 60.9 nM. For `CC(C)(C(=O)Nc1nncs1)[C@H]1c2ccccc2Oc2nc(-c3cccnc3)ccc21` [Example 187], the Ki in test [1] (setting [3]) was 34.4 nM; in test [2] (setting [4]), 33.1 nM. On to `CC(C)(C(=O)Nc1nncs1)[C@H]1c2ccccc2Oc2nc(N3CCC(=O)CC3)ccc21` [Example 161], for which, in test [1] (setting [3]), the Ki was determined as 36.6 nM. Regarding `C[C@@H](Nc1ccc2c(n1)Oc1ccccc1[C@@H]2C(C)(C)C(=O)Nc1nncs1)c1ccccc1` [Example 143], the Ki in test [1] (setting [3]) came to 744 nM.

Take `CC(C)(C(=O)Nc1nncs1)[C@@H]1c2ccccc2Oc2nc(N3CCCC3)ccc21` [Example 137]: the Ki in test [1] (setting [3]) is 221 nM. `C[C@H](Nc1ccc2c(n1)Oc1ccccc1[C@@H]2C(C)(C)C(=O)Nc1nncs1)c1ccccc1` [Example 142]: in test [1] (setting [3]), the Ki came to 156 nM.

The values above are taken from US8034940B2, “Modulators of glucocorticoid receptor, AP-1, and/or NF-κB activity and use thereof” (Bristol-Myers Squibb Company, priority 2006, dated 2011).
